According to patent publication US11918667B2, “Zirconium-based cluster as an antiperspirant and deodorant active” (Colgate-Palmolive Company, priority 2017, dated 2024):

Columns and labels:
[1] = pH of zirconium oxychloride / arginine solutions; type: physicochemical; conditions: 1% zirconium oxychloride with varied arginine, 10 g samples, incubated 1 day at 50° C., cooled to room temperature
Procedure: Samples were prepared according to Table 1. Water was added to zirconium oxychloride (ZrOCl2.8H2O, MW 322.25) in a glass jar to yield a clear solution containing 1% zirconium oxychloride. Under stirring, L-arginine was slowly added to prevent clumping of arginine as well as large fluctuations in localized pH values. The solutions were incubated for 1 day at 50° C. Then the solutions were cooled to room temperature. Solid gel was formed in samples with the molar ratio of arginine to zirconium oxychloride of 2-4.
A 100 g batch was prepared according to Table 2. 1% w/w zirconium oxychloride (ZrOCl2.8H2O, MW 322.25) and arginine were mixed in aqueous solution with the molar ratio of arginine to zirconium oxychloride of 1:1.
The zirconium oxychloride cluster was prepared as described in Example 1. The prepared zirconium oxychloride cluster was purified by gel permeability chromatograph (GPC). GPC column was prepared using Bio-Rad P2 gel with 5 μm particle size. Approximately 10 mL of prepared solution was filtered (0.45 μm) and loaded on the column using a HPLC pump at 0.2 mL/min. The mobile phase of the GPC chromatography was deionized water. Elution fractions were collected in intervals and monitored using SEC-RI. […] The pH of the GPC fraction (1160-1300 min) was 4.5. […] 10 g of this fraction was freeze dried to obtain purified powder for subsequent PXRD analysis.

[2] = cited from earlier work

In the case of `[Cl-].[Cl-].[O]=[Zr+2]` [Zr, zirconium oxychloride], the pH [1] is given as 1.39, the pH of solution ([2]; solution of zirconium oxychloride which is effective as an antiperspirant (background)) is given as “about 0.8” and the pH value ([2]; zirconium oxychloride alone (general statement)) is given as less than 2.
